What follows are molecules tested against T1, Recombinant Human Histamine H4 Receptor (Homo sapiens, UniProt Q9H3N8) (assay: Binding Assay on Recombinant Human Histamine H4 Receptor). Settings: competition binding with 3H-histamine, membranes of SK-N-MC or COS7 cells expressing human histamine H4 receptor; Ki by Cheng-Prusoff (KD 5 nM, ligand 5 nM); average of results obtained.
T1 construct: expressed in transfected cells; host or cells: SK-N-MC cells or COS7 cells, transiently transfected; cell membranes used
From the text: Additional examples of embodiments of this invention are provided by hemitartrate salts of compounds of Formula (I) and by hydrates, such as monohydrates and dihydrates, of compounds of Formula (I). […]

Molecule | Ki
COc1ccc2[nH]c(-c3cnc(NCCCC4CCN(C)CC4)nc3C)nc2c1 [Example 37, [5-(5-Methoxy-1H-benzoimidazol-2-yl)-4-methyl-pyrimidin-2-yl]-[3-(1-methyl-piperidin-4-yl)-propyl]-amine] | 81 nM
CCc1nc(NCCCC2CCN(C)CC2)ncc1-c1nc2c(C)cccc2[nH]1 [Example 43, [4-Ethyl-5-(4-methyl-1H-benzoimidazol-2-yl)-pyrimidin-2-yl]-[3-(1-methyl-piperidin-4-yl)-propyl]-amine] | 110 nM
Cc1cccc2[nH]c(-c3cnc(NCCCC4CCN(C)CC4)nc3C3CC3)nc12 [Example 44, [4-Cyclopropyl-5-(4-methyl-1H-benzoimidazol-2-yl)-pyrimidin-2-yl]-[3-(1-methyl-piperidin-4-yl)-propyl]-amine] | 560 nM
Cc1ccc2[nH]c(-c3cnc(NCCCC4CCN(C)CC4)nc3C3CC3)nc2c1C [Example 45, [4-Cyclopropyl-5-(4,5-dimethyl-1H-benzoimidazol-2-yl)-pyrimidin-2-yl]-[3-(1-methyl-piperidin-4-yl)-propyl]-amine] | 390 nM
Cc1cc(F)cc2[nH]c(-c3cnc(NCCCC4CCN(C)CC4)nc3C3CC3)nc12 [Example 46, [4-Cyclopropyl-5-(6-fluoro-4-methyl-1H-benzoimidazol-2-yl)-pyrimidin-2-yl]-[3-(1-methyl-piperidin-4-yl)-propyl]-amine] | 230 nM
Cc1cc(C)c2nc(-c3cnc(NCCCC4CCN(C)CC4)nc3C3CC3)[nH]c2c1 [Example 47, [4-Cyclopropyl-5-(4,6-dimethyl-1H-benzoimidazol-2-yl)-pyrimidin-2-yl]-[3-(1-methyl-piperidin-4-yl)-propyl]-amine] | 99 nM
Cc1c(F)ccc2[nH]c(-c3cnc(NCCCC4CCN(C)CC4)nc3C3CC3)nc12 [Example 48, [4-Cyclopropyl-5-(5-fluoro-4-methyl-1H-benzoimidazol-2-yl)-pyrimidin-2-yl]-[3-(1-methyl-piperidin-4-yl)-propyl]-amine] | 140 nM

Stronger by Ki, values ahead:

Ki | Molecule
2 nM | Cc1nc(NCCCC2CCN(C)CC2)ncc1-c1nc2c(Cl)cc(C(F)(F)F)cc2[nH]1 [Example 38, [5-(4-Chloro-6-trifluoromethyl-1H-benzoimidazol-2-yl)-4-methyl-pyrimidin-2-yl]-[3-(1-methyl-piperidin-4-yl)-propyl]-amine]
15 nM | Cc1nc(NCCCC2CCN(C)CC2)ncc1-c1nc2cc(Cl)c(F)cc2[nH]1 [Example 39, [5-(5-Chloro-6-fluoro-1H-benzoimidazol-2-yl)-4-methyl-pyrimidin-2-yl]-[3-(1-methyl-piperidin-4-yl)-propyl]-amine]
7 nM | Cc1nc(NCCCC2CCN(C)CC2)ncc1-c1nc2cc(Cl)ccc2[nH]1 [Example 40, [5-(5-Chloro-1H-benzoimidazol-2-yl)-4-methyl-pyrimidin-2-yl]-[3-(1-methyl-piperidin-4-yl)-propyl]-amine]
6 nM | Cc1nc(NCCCC2CCN(C)CC2)ncc1-c1nc2cc(Cl)c(Cl)cc2[nH]1 [Example 41, [5-(5,6-Dichloro-1H-benzoimidazol-2-yl)-4-methyl-pyrimidin-2-yl]-[3-(1-methyl-piperidin-4-yl)-propyl]-amine]
22 nM | CCc1nc(NCCCC2CCN(C)CC2)ncc1-c1nc2c(C)cc(C)cc2[nH]1 [Example 42, [5-(4,6-Dimethyl-1H-benzoimidazol-2-yl)-4-ethyl-pyrimidin-2-yl]-[3-(1-methyl-piperidin-4-yl)-propyl]-amine]
29 nM | [5-(4,5-Dimethyl-1H-benzoimidazol-2-yl)-4-ethyl-pyrimidin-2-yl]-methyl-[3-(1-methyl-piperidin-4-yl)-propyl]-amine [Example 8]

From patent US9365548B2, “Benzoimidazol-2-yl pyrimidines and pyrazines as modulators of the histamine H4 receptor” (Janssen Pharmaceutica NV, priority 2006, dated 2016)
